Measured values as given in patent publication US20240425457A1, “COMPOSITIONS AND METHODS FOR SUPPRESSING AND/OR TREATING METABOLIC DISEASES AND/OR A CLINICAL CONDITION THEREOF” (CK Biotech Inc., priority 2018, published 2024).

Legend:
[1] = system: HFD-induced diabetes mice; test: HFD-induced diabetes mice, A3334 versus rosiglitazone, one 5-day course; type: in vivo
From the text: Referring now to FIG. 37A-37E, C57BL/6N mice were fed HFD for 8 weeks to induce diabetes. Then, the mice were maintained on HFD and treated with either 25 mpk A3334 or 25 mpk rosiglitazone (RSG) once per day for next 5 days. Then, the mice were maintained HFD condition without any drug treatments (e.g., A3334 or RSG) for the next several weeks. Rosiglitazone (RSG) is a diabetes drug in thiazolidinedione (TZD) class which works as an insulin sensitizer functioning via binding PPAR in fat cells.
Referring now to FIG. 45A-45F, C57BL/6N mice were induced diabetes by HFD for 8 weeks, and then treated with A3334 (25 mpk) or RSG (25 mpk) once per day for 5 days starting at week 8 under HFD condition. Animals were sacrificed at week 11.

Wnt/β-catenin signaling = Wnt/β-catenin signaling (TOPFlash) reporter luciferase assay in HEK293-TOP cells; type: cell-based
Method: Luciferase reporter assay. HEK293-TOP cells were seeded in 24-well plates. Cells were treated with A3334 at a concentration of 1, 5, and 10 μM for 24 h. Total cell lysates were extracted with 35 μl of 5× Reporter Lysis Buffer per well according to the manufacturer's instructions (Promega). A total of 35 μl of luciferin was added and luciferase activity was measured using a Fluorstar Optima microplate reader.
Wnt/β-catenin signaling reporter luciferase assay. HEK293-TOP cells were seeded were seeded in 96-well plates at a density of 2.5×10^4 cells per well. Cells were treated with individual chemicals at a concentration of 1, 5, 10 µM for 24 h. Total cell lysates were extracted with 25 µl of 5× Reporter Lysis Buffer per well according to the manufacturer's instruction (Promega, Madison, WI). Luciferin (25 µl) was added and luciferase activity was measured using FLUOSTAR (BMG labtech, Offenburg, Germany).

db/db diabetes mice = test: db/db diabetes mice; type: in vivo; settings: 1 and 2 weeks of treatment
[2] = 25 mpk, 5 days from week 8, sacrifice week 11
[3] = HFD 8 weeks, then 25 mpk once per day for 5 days

For `COc1ccc2c(c1)/C(=C1/Nc3ccccc3/C1=N\O)C(=O)N2` [Compound A3334, 5-Methoxyindirubin-3′-oxime], the liver steatosis [1, 2] was “suppressed by A3334”, the “mRNA levels of lipogenesis markers in liver” value [1, 2] was “suppressed by A3334” and the “serum insulin and total cholesterol levels” value [1, 2] was “abolished by A3334”. The “ALT and AST in blood serum” value [1, 3] was “not evident”, the “GTT and ITT” value [1, 3] was “significant reduction of both GTT and ITT” and the body weight gain [1, 3] was “suppressed the body weight gain induced by HFD”. The “fasting glucose level after termination of drug treatment” value [1, 3] was “maintained at low level for several weeks”, the “CXXC5, β-catenin, crown like structures, PPARγ and macrophage markers” value ([1]; HFD 8 weeks, then 25 mpk once per day for 5 days, immunostaining) was “suppressed overexpression of CXXC5, increased expressions of β-catenin, suppressed formation of crown like structures (CRC), and suppressed the expression of PPARγ and macrophage markers” and the “PPARγ mRNA level” value ([1]; white adipose tissue, 25 mpk) was “not increased by A3334”. For the same compound, the “mRNA of M1 and M2 macrophage markers” value ([1]; white adipose tissue, 25 mpk) was “decreased and increased by A3334, respectively”, the “mRNA of Wnt/β-catenin signaling target genes (Dvl1, Wisp1, Fosl1)” value ([1]; white adipose tissue, 25 mpk) was “increased by A3334” and the “Wnt/β-catenin (TOPFlash) reporter activity” value (Wnt/β-catenin signaling) was “dose-dependent increment of the TOPFlash reporter activity”. For the same compound, the fasting glucose level (db/db diabetes mice) was “reduces fasting glucose levels”.
